biological target: human capsaicin receptor (VR1) (Homo sapiens, UniProt Q8NER1); experiment: Capsaicin receptor binding assay ([3H]RTX competition, VR1-transfected HEK293 membranes); conditions: not given
Sequence (Q8NER1 whole entry): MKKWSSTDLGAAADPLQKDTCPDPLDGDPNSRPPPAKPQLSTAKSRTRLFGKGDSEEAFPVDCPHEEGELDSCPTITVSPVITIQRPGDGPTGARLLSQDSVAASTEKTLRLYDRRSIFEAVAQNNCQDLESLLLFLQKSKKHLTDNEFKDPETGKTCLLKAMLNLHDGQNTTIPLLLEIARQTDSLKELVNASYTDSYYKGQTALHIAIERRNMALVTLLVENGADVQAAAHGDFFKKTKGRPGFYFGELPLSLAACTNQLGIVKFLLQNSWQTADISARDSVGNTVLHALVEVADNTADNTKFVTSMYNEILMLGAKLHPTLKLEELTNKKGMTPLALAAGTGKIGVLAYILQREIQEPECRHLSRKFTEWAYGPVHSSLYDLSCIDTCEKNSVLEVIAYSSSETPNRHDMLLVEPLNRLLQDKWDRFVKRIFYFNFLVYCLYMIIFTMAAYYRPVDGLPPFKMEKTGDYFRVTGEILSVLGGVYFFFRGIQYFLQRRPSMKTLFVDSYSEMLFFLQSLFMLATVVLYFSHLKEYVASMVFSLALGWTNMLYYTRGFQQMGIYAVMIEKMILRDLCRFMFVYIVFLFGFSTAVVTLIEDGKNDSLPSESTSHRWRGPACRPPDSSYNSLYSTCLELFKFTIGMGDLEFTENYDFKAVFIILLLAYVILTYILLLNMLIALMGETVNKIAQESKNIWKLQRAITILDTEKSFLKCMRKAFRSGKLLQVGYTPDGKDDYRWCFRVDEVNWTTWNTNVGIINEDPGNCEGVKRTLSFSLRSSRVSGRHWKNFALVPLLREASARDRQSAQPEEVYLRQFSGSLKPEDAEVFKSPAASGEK

Ki, < 1 µM:
Cc1cccnc1-c1ccc2c(Nc3ccc(C(F)(F)F)cc3)nc(C3CNC3)nc2n1 [Compound 735, [2-Azetidin-3-yl-7-(3-methyl-pyridin-2-yl)-pyrido[2,3-d]pyrimidin-4-yl]-(4-trifluoromethyl-phenyl)-amine]
O=C(O)C1CCCCN1Cc1nc(Nc2ccc(C(F)(F)F)cc2)c2ccc(-c3ncccc3C(F)(F)F)cc2n1 (stereo not drawn) [Compound 737, 1-[4-(4-Trifluoromethyl-phenylamino)-7-(3-trifluoromethyl-pyridin-2-yl)-quinazolin-2-ylmethyl]-piperidine-2-carboxylic acid]
Cc1cccnc1-c1ccc2c(Nc3ccc(C(F)(F)F)cc3)nc(CN3C[C@@H](C)O[C@@H](C)C3)nc2n1 [Compound 738, [2-(2,6-Dimethyl-morpholin-4-ylmethyl)-7-(3-methyl-pyridin-2-yl)-pyrido[2,3-d]pyrimidin-4-yl]-(4-trifluoromethyl-phenyl)-amine (cis)]
CC1(C)CN(Cc2nc(Nc3ccc(C(F)(F)F)cc3)c3ccc(-c4ncccc4C(F)(F)F)cc3n2)CCO1 [Compound 739, [2-(2,2-Dimethyl-morpholin-4-ylmethyl)-7-(3-trifluoromethyl-pyridin-2-yl)-quinazolin-4-yl]-(4-trifluoromethyl-phenyl)-amine]
CC1(C)CN(Cc2nc(Nc3ccc(C(F)(F)F)cc3)c3ccc(-c4ncccc4Cl)cc3n2)CCO1 [Compound 740, [7-(3-Chloro-pyridin-2-yl)-2-(2,2-dimethyl-morpholin-4-ylmethyl)-quinazolin-4-yl]-(4-trifluoromethyl-phenyl)-amine]
CC1(C)CN(Cc2nc(Nc3ccc(C4CC4)cc3)c3ccc(-c4ncccc4C(F)(F)F)cc3n2)CCO1 [Compound 741, (4-Cyclopropyl-phenyl)-[2-(2,2-dimethyl-morpholin-4-ylmethyl)-7-(3-trifluoromethyl-pyridin-2-yl)-quinazolin-4-yl]-amine]
CC1(C)CN(Cc2nc(Nc3ccc(C(F)(F)F)cc3)c3ncc(-c4ncccc4C(F)(F)F)cc3n2)CCO1 [Compound 742, [2-(2,2-Dimethyl-morpholin-4-ylmethyl)-7-(3-trifluoromethyl-pyridin-2-yl)-pyrido[3,2-d]pyrimidin-4-yl]-(4-trifluoromethyl-phenyl)-amine]
COCCN(CCOC)Cc1nc(Nc2ccc(C(F)(F)F)cc2)c2ccc(-c3ncccc3C)nc2n1 [Compound 743, [2-{[Bis-(2-methoxy-ethyl)-amino]-methyl}-7-(3-methyl-pyridin-2-yl)-pyrido[2,3-d]pyrimidin-4-yl]-(4-trifluoromethyl-phenyl)-amine]
CC(C)(C)c1ccc(Nc2nc(CN3CCC[C@H]3C(=O)O)nc3cc(-c4ncccc4C(F)(F)F)ccc23)cc1 [Compound 744, (S)-1-[4-(4-tert-Butyl-phenylamino)-7-(3-trifluoromethyl-pyridin-2-yl)-quinazolin-2-ylmethyl]-pyrrolidine-2-carboxylic acid]
CC(C)(C)c1ccc(Nc2nc(CN3CCC[C@@H]3C(=O)O)nc3cc(-c4ncccc4C(F)(F)F)ccc23)cc1 [Compound 745, (R)-1-[4-(4-tert-Butyl-phenylamino)-7-(3-trifluoromethyl-pyridin-2-yl)-quinazolin-2-ylmethyl]-pyrrolidine-2-carboxylic acid]
Cc1cccnc1-c1ccc2c(Nc3ccc(C(F)(F)F)cc3)nc(CN3CCCC(C)(C)C3)nc2n1 [Compound 746, [2-(3,3-Dimethyl-piperidin-1-ylmethyl)-7-(3-methyl-pyridin-2-yl)-pyrido[2,3-d]pyrimidin-4-yl]-(4-trifluoromethyl-phenyl)-amine]
Cc1cccnc1-c1ccc2c(Nc3ccc(C(F)(F)F)cc3)nc(CN3CCC[C@H]3C(=O)O)nc2n1 [Compound 747, (S)-1-[7-(3-Methyl-pyridin-2-yl)-4-(4-trifluoromethyl-phenylamino)-pyrido[2,3-d]pyrimidin-2-ylmethyl]-pyrrolidine-2-carboxylic acid]
C[C@@H]1CN(Cc2nc(Nc3ccc(C(F)(F)F)cc3)c3ccc(-c4ncccc4C(F)(F)F)nc3n2)C[C@H](C)O1 [Compound 748, [2-(2,6-Dimethyl-morpholin-4-ylmethyl)-7-(3-trifluoromethyl-pyridin-2-yl)-pyrido[2,3-d]pyrimidin-4-yl]-(4-trifluoromethyl-phenyl)-amine (cis)]
COCCN(CCOC)Cc1nc(Nc2ccc(C(F)(F)F)cc2)c2ccc(-c3ncccc3C(F)(F)F)nc2n1 [Compound 749, [2-{[Bis-(2-methoxy-ethyl)-amino]-methyl}-7-(3-trifluoromethyl-pyridin-2-yl)-pyrido[2,3-d]pyrimidin-4-yl]-(4-trifluoromethyl-phenyl)-amine]
CC1(C)CCCN(Cc2nc(Nc3ccc(C(F)(F)F)cc3)c3ccc(-c4ncccc4C(F)(F)F)nc3n2)C1 [Compound 750, [2-(3,3-Dimethyl-piperidin-1-ylmethyl)-7-(3-trifluoromethyl-pyridin-2-yl)-pyrido[2,3-d]pyrimidin-4-yl]-(4-trifluoromethyl-phenyl)-amine]
O=C(O)[C@@H]1CCCN1Cc1nc(Nc2ccc(C(F)(F)F)cc2)c2ccc(-c3ncccc3C(F)(F)F)nc2n1 [Compound 751, (S)-1-[4-(4-Trifluoromethyl-phenylamino)-7-(3-trifluoromethyl-pyridin-2-yl)-pyrido[2,3-d]pyrimidin-2-ylmethyl]-pyrrolidine-2-carboxylic acid]
CC(C)(C)c1ccc(Nc2nc(CN3CCC[C@H]3C(=O)O)nc3cc(-c4ncccc4C(F)(F)F)cnc23)cc1 [Compound 752, (S)-1-[4-(4-tert-Butyl-phenylamino)-7-(3-trifluoromethyl-pyridin-2-yl)-pyrido[3,2-d]pyrimidin-2-ylmethyl]-pyrrolidine-2-carboxylic acid]
CCCN(CCO)Cc1nc(Nc2ccc(C(C)(C)C)cc2)c2ccc(-c3ncccc3C(F)(F)F)cc2n1 [Compound 754, 2-{[4-(4-tert-Butyl-phenylamino)-7-(3-trifluoromethyl-pyridin-2-yl)-quinazolin-2-ylmethyl]-propyl-amino}-ethanol]
CC(C)(C)c1ccc(Nc2nc(CN3CCCC3CO)nc3cc(-c4ncccc4C(F)(F)F)ccc23)cc1 (stereo not drawn) [Compound 755, {1-[4-(4-tert-Butyl-phenylamino)-7-(3-trifluoromethyl-pyridin-2-yl)-quinazolin-2-ylmethyl]-pyrrolidin-2-yl}-methanol]
O=S1(=O)CCCCN1Cc1nc(Nc2ccc(C(F)(F)F)cc2)c2ccc(-c3ncccc3C(F)(F)F)cc2n1 [Compound 756, [2-(1,1-Dioxo-1λ^6-[1,2]thiazinan-2-ylmethyl)-7-(3-trifluoromethyl-pyridin-2-yl)-quinazolin-4-yl]-(4-trifluorornethyl-phenyl)-amine]

same assay, conditions: Table III; * = Ki 1 micromolar or less

Ki, < 1 µM:
CCOC(=O)C1CCN(CCc2nc(Nc3ccc(C(F)(F)F)cc3)c3ccc(-c4ncccc4C(F)(F)F)cc3n2)CC1 [Compound 736, 1-{2-[4-(4-Trifluoromethyl-phenylamino)-7-(3-trifluoromethyl-pyridin-2-yl)-quinazolin-2-yl]-ethyl}-piperidine-4-carboxylic acid ethyl ester]
